Molecules are shown by their SMILES.

The test addresses T1, Human Factor XIIa (Homo sapiens, UniProt P00748).
T1 construct: purchased Enzyme Research Laboratories
T1 sequence (P00748 373-615 limits assumed): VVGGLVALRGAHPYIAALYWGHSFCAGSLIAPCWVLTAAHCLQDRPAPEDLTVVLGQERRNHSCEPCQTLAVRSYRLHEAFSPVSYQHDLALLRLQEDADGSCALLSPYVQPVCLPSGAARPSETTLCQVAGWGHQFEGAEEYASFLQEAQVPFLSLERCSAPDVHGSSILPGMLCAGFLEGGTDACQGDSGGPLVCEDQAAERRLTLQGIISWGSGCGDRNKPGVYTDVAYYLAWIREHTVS
T1 sequence (P00748 20-372 partner limits assumed): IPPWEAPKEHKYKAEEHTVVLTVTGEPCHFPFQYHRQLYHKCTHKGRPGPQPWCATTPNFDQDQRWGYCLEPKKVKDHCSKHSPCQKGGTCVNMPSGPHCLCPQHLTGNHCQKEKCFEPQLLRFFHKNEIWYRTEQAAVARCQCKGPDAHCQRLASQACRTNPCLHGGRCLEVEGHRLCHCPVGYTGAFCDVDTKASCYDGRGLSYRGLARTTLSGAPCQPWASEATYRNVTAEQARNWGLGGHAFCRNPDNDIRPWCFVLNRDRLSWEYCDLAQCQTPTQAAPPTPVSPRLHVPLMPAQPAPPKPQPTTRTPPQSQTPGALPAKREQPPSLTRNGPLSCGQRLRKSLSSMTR
The experiment in a line: Determination of FXIIa inhibition (in vitro IC50 assay, fluorogenic substrate H-DPro-Phe-Arg-AFC). Type of test: biochemical. Particulars: human Factor XIIa; fluorogenic substrate H-DPro-Phe-Arg-AFC at Km concentration; 5 min, 25 °C; class symbols; read-out: Human FXIIa IC50. On the procedure:
In vitro inhibition of Factor XIIa was determined using an IC50 assay based on standard literature methods (see e.g Baeriswyl et al., ACS Chem. Biol., 2015, 10 (8) 1861; Bouckaert et al., European Journal of Medicinal Chemistry 110 (2016) 181). Human Factor XIIa (Enzyme Research Laboratories) was incubated at 25 °C with the fluorogenic substrate H-DPro-Phe-Arg-AFC (Peptide Protein Science) and various concentrations of the test compound. Protease activity was measured by monitoring the accumulation of liberated fluorescence from the substrate over 5 min at 25 °C. The linear rate of fluorescence increase per minute was expressed as percentage (%) activity. The Km for the cleavage of the substrate by FXIIa was determined by standard transformation of the Michaelis-Menten equation. The compound inhibitor assays were performed at substrate Km concentration. IC50 values were calculated as the concentration of inhibitor giving 50% inhibition (IC50) of the uninhibited enzyme activity (100%).
As a reminder, the IC50 is the point on the concentration scale where inhibition reaches its midpoint. For the compound `Cc1cc(OCC23CN(C(=O)N4CC5(CCOCC5)C4)C(CNc4cccc5c(N)nccc45)(C2)C3)cc(=O)n1C` [Example 46, 4-((1-(((1-aminoisoquinolin-5-yl)amino)methyl)-2-(7-oxa-2-azaspiro[3.5]nonane-2-carbonyl)-2-azabicyclo[2.1.1]hexan-4-yl)methoxy)-1,6-dimethylpyridin-2(1H)-one], the IC50 was 10 to 100 nM.

As for `Cc1cc(OCC23CN(C(=O)N(C)C[C@@H]4CCOC4)C(CNc4cccc5c(N)nccc45)(C2)C3)cc(=O)n1C` [Example 47, (S)-1-(((1-aminoisoquinolin-5-yl)amino)methyl)-4-(((1,6-dimethyl-2-oxo-1,2-dihydropyridin-4-yl)oxy)methyl)-N-methyl-N-((tetrahydrofuran-3-yl)methyl)-2-azabicyclo[2.1.1]hexane-2-carboxamide], the IC50 was 10 to 100 nM. The same measure for `Cc1cc(OCC23CN(C(=O)N(C)C[C@H]4CCOC4)C(CNc4cccc5c(N)nccc45)(C2)C3)cc(=O)n1C` [Example 48, (R)-1-(((1-aminoisoquinolin-5-yl)amino)methyl)-4-(((1,6-dimethyl-2-oxo-1,2-dihydropyridin-4-yl)oxy)methyl)-N-methyl-N-((tetrahydrofuran-3-yl)methyl)-2-azabicyclo[2.1.1]hexane-2-carboxamide]: 10 to 100 nM. The same measure for `Cc1cc(OCC23CN(C(=O)N4CC[C@H](c5ccccc5)C4)C(CNc4cccc5c(N)nccc45)(C2)C3)cc(=O)n1C` [Example 49, (R)-4-((1-(((1-aminoisoquinolin-5-yl)amino)methyl)-2-(3-phenylpyrrolidine-1-carbonyl)-2-azabicyclo[2.1.1]hexan-4-yl)methoxy)-1,6-dimethylpyridin-2(1H)-one]: 10 to 100 nM. On to `Cn1ccc(OCC23CN(C(=O)N4Cc5ccccc5C4)C(CNc4cccc5c(N)nccc45)(C2)C3)cc1=O` [Example 50, 4-((1-(((1-aminoisoquinolin-5-yl)amino)methyl)-2-(isoindoline-2-carbonyl)-2-azabicyclo[2.1.1]hexan-4-yl)methoxy)-1-methylpyridin-2(1H)-one], for which the IC50 fell in the range of 10 to 100 nM. The same measure for `Cn1ccc(OCC23CN(C(=O)N4CC5(CCC5)C4)C(CNc4cccc5c(N)nccc45)(C2)C3)cc1=O` [Example 51, 4-((1-(((1-aminoisoquinolin-5-yl)amino)methyl)-2-(2-azaspiro[3.3]heptane-2-carbonyl)-2-azabicyclo[2.1.1]hexan-4-yl)methoxy)-1-methylpyridin-2(1H)-one]: 10 to 100 nM; for `Cn1ccc(OCC23CN(C(=O)Nc4ccc5c(c4)CCCO5)C(CNc4cccc5c(N)nccc45)(C2)C3)cc1=O` [Example 52, 1-(((1-aminoisoquinolin-5-yl)amino)methyl)-N-(chroman-6-yl)-4-(((1-methyl-2-oxo-1,2-dihydropyridin-4-yl)oxy)methyl)-2-azabicyclo[2.1.1]hexane-2-carboxamide]: 0.1 to 1 nM. The same measure for `CN(CC1CC1)C(=O)N1CC2(COc3ccn(C)c(=O)c3)CC1(CNc1cccc3c(N)nccc13)C2` [Example 53, 1-(((1-aminoisoquinolin-5-yl)amino)methyl)-N-(cyclopropylmethyl)-N-methyl-4-(((1-methyl-2-oxo-1,2-dihydropyridin-4-yl)oxy)methyl)-2-azabicyclo[2.1.1]hexane-2-carboxamide]: 10 to 100 nM; for `Cn1ccc(OCC23CN(C(=O)N4CCCCC4)C(CNc4cccc5c(N)nccc45)(C2)C3)cc1=O` [Example 54, 4-((1-(((1-aminoisoquinolin-5-yl)amino)methyl)-2-(piperidine-1-carbonyl)-2-azabicyclo[2.1.1]hexan-4-yl)methoxy)-1-methylpyridin-2(1H)-one]: 10 to 100 nM.

Source of the values: US20260347347A1, “2-AZA-AND 2-OXABICYCLO[2.1.1]HEXANE DERIVATIVES AS FACTOR XIIA ENZYME INHIBITORS” (KALVISTA PHARMACEUTICALS LIMITED, priority 2022, published 2026).
